From ChEMBL document CHEMBL6127154, “Pursuing Polypharmacology: Benzothiopyranoindoles as G-Quadruplex Stabilizers and Topoisomerase I Inhibitors for Effective Anticancer Strategies” (ACS Med Chem Lett, 2024)
Active and inactive are the calls of the source. The calls are words filed in the database; no cut-off is given here.

Assays:
Homo sapiens = species: Homo sapiens; assay: Inhibition of human Topoisomerase II assessed as relaxation of supercoiled plasmid pBR322 DNA at 2.5 uM incubated for 1 hr by ethidium bromide staining based agarose gel electrophoresis
Quadruplex DNA [1] = assay: Thermal stabilization of human Tel26-hy G4 quadruplex DNA assessed as change in melting temperature (deltaT1/2) incubated for 10 mins by circular dichroism spectroscopic analysis (reference value: 55.4 +/- 0.1 degreeC); type: nucleic-acid assay
A549 = assay: Antiproliferative activity against human A549 cells assessed as growth inhibition incubated for 48 hrs by SRB assay; type: functional
NCI-H23 = assay: Antiproliferative activity against human NCI-H23 cells assessed as growth inhibition incubated for 48 hrs by SRB assay; type: functional
MDA-MB-231 = assay: Antiproliferative activity against human MDA-MB-231 cells assessed as growth inhibition incubated for 48 hrs by SRB assay; type: functional
HCT-15 = assay: Antiproliferative activity against human HCT-15 cells assessed as growth inhibition incubated for 48 hrs by SRB assay; type: functional
U-251 = assay: Antiproliferative activity against human U-251 cells assessed as growth inhibition incubated for 48 hrs by SRB assay; type: functional
Quadruplex DNA [2] = assay: Thermal stabilization of human c-Myc G4 quadruplex DNA assessed as change in melting temperature (deltaT1/2) incubated for 10 mins by circular dichroism spectroscopic analysis (reference value: 70.5 +/- 0.1 degreeC); type: nucleic-acid assay
CCRF-CEM = assay: Antiproliferative activity against human CCRF-CEM cells assessed as growth inhibition incubated for 48 hrs by SRB assay; type: functional
M14 = assay: Antiproliferative activity against human M14 cells assessed as growth inhibition incubated for 48 hrs by SRB assay; type: functional
MDA-MB-435 = assay: Antiproliferative activity against human MDA-MB-435 cells assessed as growth inhibition incubated for 48 hrs by SRB assay; type: functional
SNB-19 = assay: Antiproliferative activity against human SNB-19 cells assessed as growth inhibition incubated for 48 hrs by SRB assay; type: functional
NCI-H226 = assay: Antiproliferative activity against human NCI-H226 cells assessed as growth inhibition incubated for 48 hrs by SRB assay; type: functional
CAKI-1 = assay: Antiproliferative activity against human CAKI-1 cells assessed as growth inhibition incubated for 48 hrs by SRB assay; type: functional
NCI/ADR-RES = assay: Antiproliferative activity against human NCI/ADR-RES cells assessed as growth inhibition incubated for 48 hrs by SRB assay; type: functional
HL-60 = assay: Antiproliferative activity against human HL-60 cells assessed as growth inhibition incubated for 48 hrs by SRB assay; type: functional
LOX IMVI = assay: Antiproliferative activity against human LOX IMVI cells assessed as growth inhibition incubated for 48 hrs by SRB assay; type: functional
SK-MEL-5 = assay: Antiproliferative activity against human SK-MEL-5 cells assessed as growth inhibition incubated for 48 hrs by SRB assay; type: functional
RPMI-8226 = assay: Antiproliferative activity against human RPMI-8226 cells assessed as growth inhibition incubated for 48 hrs by SRB assay; type: functional
786-0 = assay: Antiproliferative activity against human 786-0 cells assessed as growth inhibition incubated for 48 hrs by SRB assay; type: functional
COLO 205 = assay: Antiproliferative activity against human COLO 205 cells assessed as growth inhibition incubated for 48 hrs by SRB assay; type: functional
SF-539 = assay: Antiproliferative activity against human SF-539 cells assessed as growth inhibition incubated for 48 hrs by SRB assay; type: functional
BT-549 = assay: Antiproliferative activity against human BT-549 cells assessed as growth inhibition incubated for 48 hrs by SRB assay; type: functional
HCC 2998 = assay: Antiproliferative activity against human HCC 2998 cells assessed as growth inhibition incubated for 48 hrs by SRB assay; type: functional
Quadruplex DNA [3] = assay: Binding affinity to human hybrid Tel23 G4 quadruplex DNA assessed as dissociation constant by MST analysis; type: nucleic-acid assay
NCI-H522 = assay: Antiproliferative activity against human NCI-H522 cells assessed as growth inhibition incubated for 48 hrs by SRB assay; type: functional
Quadruplex DNA [4] = assay: Binding affinity to human hybrid c-Myc G4 quadruplex DNA assessed as dissociation constant by MST analysis; type: nucleic-acid assay
dsDNA [5] = assay: Binding affinity to human duplex ds26 DNA assessed as dissociation constant by MST analysis; type: nucleic-acid assay
Quadruplex DNA [6] = assay: Thermal stabilization of FAM labeled human Tel21T G4 quadruplex DNA assessed as change in melting temperature (deltaT1/2) in presence of 15 uM unlabeled duplex competitor (ds26) by FRET assay; type: nucleic-acid assay
Quadruplex DNA [7] = assay: Thermal stabilization of FAM labeled human Tel21T G4 quadruplex DNA assessed as change in melting temperature (deltaT1/2) in presence of unlabeled duplex competitor (ds26) by FRET assay; type: nucleic-acid assay
Quadruplex DNA [8] = assay: Thermal stabilization of FAM labeled human Tel21T G4 quadruplex DNA assessed as change in melting temperature (deltaT1/2) in presence of 50 uM unlabeled duplex competitor (ds26) by FRET assay; type: nucleic-acid assay
dsDNA [9] = assay: Binding affinity to human […] Tel26-hy DNA assessed as dissociation constant by MST analysis; type: nucleic-acid assay
Quadruplex DNA [10] = assay: Binding affinity to human parallel c-Kit2 G4 quadruplex DNA assessed as dissociation constant by MST analysis; type: nucleic-acid assay

**Q.** Which inhibition (Homo sapiens) does the source give for `CCN(CC)CCn1c2ccc(O)cc2c2sc3cc(OC)ccc3c(=O)c21` here?
**A.** Active

**Q.** And the ΔTm (Quadruplex DNA [1])?
**A.** 7.5 °C

**Q.** What about the GI (A549) of the same compound?
**A.** 1.63 µM

**Q.** What about the GI (NCI-H23) of the same compound?
**A.** 1.56 µM

**Q.** What about the GI (MDA-MB-231) of the same compound?
**A.** 1.61 µM

**Q.** What about the GI (HCT-15) of the same compound?
**A.** 1.2 µM

**Q.** And the GI (U-251)?
**A.** 1.58 µM

**Q.** And the ΔTm (Quadruplex DNA [2])?
**A.** > 20 °C

**Q.** What about the GI (CCRF-CEM) of the same compound?
**A.** 1.09 µM

**Q.** What about the GI (M14) of the same compound?
**A.** 1.64 µM

**Q.** What about the GI (MDA-MB-435) of the same compound?
**A.** 1.64 µM

**Q.** What about the GI (SNB-19) of the same compound?
**A.** 1.51 µM

**Q.** And the GI (NCI-H226)?
**A.** 10.4 µM

**Q.** And the GI (CAKI-1)?
**A.** 3.73 µM

**Q.** What about the GI (NCI/ADR-RES) of the same compound?
**A.** 1.23 µM

**Q.** And the GI (HL-60)?
**A.** 1.72 µM

**Q.** And the GI (LOX IMVI)?
**A.** 1.21 µM

**Q.** What about the GI (SK-MEL-5) of the same compound?
**A.** 1.74 µM

**Q.** What about the GI (RPMI-8226) of the same compound?
**A.** 1.95 µM

**Q.** And the GI (786-0)?
**A.** 1.39 µM

**Q.** And the GI (COLO 205)?
**A.** 3.08 µM

**Q.** And the GI (SF-539)?
**A.** 1.76 µM

**Q.** And the GI (BT-549)?
**A.** 6.08 µM

**Q.** And the GI (HCC 2998)?
**A.** 1.47 µM

**Q.** `CCN(CC)CCn1c2ccc(OC)cc2c2sc3cc(OC)ccc3c(=O)c21` was tested. Which inhibition (Homo sapiens) did it give?
**A.** Active

**Q.** What about the ΔTm (Quadruplex DNA [1]) of the same compound?
**A.** 10.4 °C

**Q.** What about the GI (A549) of the same compound?
**A.** 1.59 µM

**Q.** What about the GI (NCI-H23) of the same compound?
**A.** 1.9 µM

**Q.** And the GI (MDA-MB-231)?
**A.** 1.54 µM

**Q.** And the GI (HCT-15)?
**A.** 0.861 µM

**Q.** And the GI (U-251)?
**A.** 1.55 µM

**Q.** What about the ΔTm (Quadruplex DNA [2]) of the same compound?
**A.** > 20 °C

**Q.** And the GI (CCRF-CEM)?
**A.** 1.04 µM

**Q.** And the GI (M14)?
**A.** 1.64 µM

**Q.** What about the Kd (Quadruplex DNA [3]) of the same compound?
**A.** 9 µM

**Q.** And the GI (NCI-H522)?
**A.** 1.71 µM

**Q.** What about the GI (MDA-MB-435) of the same compound?
**A.** 1.73 µM

**Q.** What about the GI (SNB-19) of the same compound?
**A.** 2.43 µM

**Q.** What about the GI (NCI-H226) of the same compound?
**A.** 2.46 µM

**Q.** And the Kd (Quadruplex DNA [4])?
**A.** 2.1 µM

**Q.** What about the Kd (dsDNA [5]) of the same compound?
**A.** 1.3 µM

**Q.** And the GI (CAKI-1)?
**A.** 1.65 µM

**Q.** What about the ΔTm (Quadruplex DNA [6]) of the same compound?
**A.** 1.9 °C

**Q.** What about the GI (NCI/ADR-RES) of the same compound?
**A.** 1.24 µM

**Q.** What about the GI (HL-60) of the same compound?
**A.** 1.77 µM

**Q.** What about the ΔTm (Quadruplex DNA [7]) of the same compound?
**A.** 12.6 °C

**Q.** And the ΔTm (Quadruplex DNA [8])?
**A.** 1.6 °C

**Q.** And the GI (LOX IMVI)?
**A.** 1.3 µM

**Q.** What about the GI (SK-MEL-5) of the same compound?
**A.** 1.74 µM

**Q.** And the Kd (dsDNA [9])?
**A.** 23 µM

**Q.** What about the GI (RPMI-8226) of the same compound?
**A.** 1.47 µM

**Q.** And the GI (786-0)?
**A.** 1.59 µM

**Q.** What about the GI (COLO 205) of the same compound?
**A.** 1.39 µM

**Q.** What about the GI (SF-539) of the same compound?
**A.** 1.66 µM

**Q.** What about the GI (BT-549) of the same compound?
**A.** 2.24 µM

**Q.** What about the GI (HCC 2998) of the same compound?
**A.** 1.48 µM

**Q.** And the Kd (Quadruplex DNA [10])?
**A.** 0.3 µM
